The test system of the assay is 15LOX/PEBP1. Description: Potency of 15LOX/PEBP1 inhibitors with anti-ferroptotic effect (Table 1). The class given is cell-based. The source says: Development and testing of new compounds that inhibit 15LOX/PEBP1 complex activity. A combination of computational and experimental studies are used. […] Computer modeling considers specific features of organization of 15LOX/PEBP1 complexes and positioning of AA-PE as well as regio-specific oxygenation of AA-residues at 15th carbon. […] It has been shown that: i) binding interface of 15LOX in 15LOX/PEBP1 complex includes a helix on 15LOX (α2) and kinase binding epitope (D144, H145, R146) on PEBP1 (FIG. 8); and ii) interfacial interactions play a pivotal role in allosterically altering conformational dynamics of 15LOX in complex, and its substrate specificity. Analysis of change in access to catalytic site upon PEBP1 binding, using elastic network models indicates needed sites at 15LOX/PEBP1 binding interface. Dynamics simulations are also performed, for 15LOX alone and 15LOX/PEBP1 complex. An effective inhibitor, NCG-01, with in vivo activity has been indicated. Several other 15LOX/PEBP1 inhibitors with anti-ferroptotic effect (FIG. 9) have been identified. To test the effectiveness of compounds identified from the computational screen, RSL3 and mechanical stretch models with LDH and PI assays as a primary outcome are performed. The compounds that inhibit cell death by at least 50% are then evaluated for their effects on AA-PE and AA oxidation by 15LOX/PEBP1 complex and 15LOX alone, respectively, by LC-MS. Evaluation of the effect of compounds in suppressing AA-PE-OOH formation in cells upon proferroptotic stimuli is also performed.
Regarding `FC(F)(F)c1ccc(-c2cn(-c3ccccc3)c(SCc3ccccc3)n2)cc1` [Compound 4, 2-(benzylthio)-1-phenyl-4-(4-(trifluoromethyl)phenyl)-1H-imidazole], the Potency entry is recorded as “+ (+ > 1 μM)”.

With `FC(F)(F)c1ccc(CSc2nc(-c3ccc(C(F)(F)F)cc3)cn2-c2ccccc2)cc1` [Compound 6, 1-phenyl-2-((4-(trifluoromethyl)benzyl)thio)-4-(4-(trifluoromethyl)phenyl)-1H-imidazole], the Potency entry is reported as “+ (+ > 1 μM)”.

With `Fc1ccc(-n2cc(-c3ccccc3)nc2SCc2ccc(C(F)(F)F)cc2)cc1` [Compound 11, 1-(4-fluorophenyl)-4-phenyl-2-((4-(trifluoromethyl)benzyl)thio)-1H-imidazole], the Potency entry was “+ (+ > 1 μM)”.

`FC(F)(F)c1ccc(CSc2nc(-c3ccccc3)cn2-c2ccc(Cl)cc2)cc1` [Compound 13, 1-(4-chlorophenyl)-4-phenyl-2-((4-(trifluoromethyl)benzyl)thio)-1H-imidazole]: the Potency result is “+ (+ > 1 μM)”.

As to `Fc1ccccc1-n1cc(-c2ccccc2)nc1SCc1ccc(C(F)(F)F)cc1` [Compound 14, 1-(2-fluorophenyl)-4-phenyl-2-((4-(trifluoromethyl)benzyl)thio)-1H-imidazole], the Potency entry is recorded as “+ (+ > 1 μM)”.

As for `Cc1ccc(-n2cc(-c3ccccc3)nc2SCc2ccc(C(F)(F)F)cc2)cc1` [Compound 16, 4-phenyl-1-(p-tolyl)-2-((4-(trifluoromethyl)benzyl)thio)-1H-imidazole], the Potency result is “+ (+ > 1 μM)”.

In the case of `FC(F)(F)c1ccc(CSc2nc(-c3ccccc3)cn2-c2cccc(Cl)c2)cc1` [Compound 17, 1-(3-chlorophenyl)-4-phenyl-2-((4-(trifluoromethyl)benzyl)thio)-1H-imidazole], the Potency entry was “+ (+ > 1 μM)”.

Take `FC(F)(F)c1ccc(CSc2nc(-c3ccccc3)cn2-c2ccccc2)cc1` [Compound 20, 1,4-diphenyl-2-((4-(trifluoromethyl)benzyl)thio)-1H-imidazole]: the Potency entry is listed as “+ (+ > 1 μM)”.

For the compound `Fc1cc(F)cc(-n2cc(-c3ccccc3)nc2SCc2ccc(C(F)(F)F)cc2)c1` [Compound 21, 1-(3,5-difluorophenyl)-4-phenyl-2-((4-(trifluoromethyl)benzyl)thio)-1H-imidazole], the Potency entry is on record as “dead”.

As to `Cc1cccc(-n2cc(-c3ccccc3)nc2SCc2ccc(C(F)(F)F)cc2)c1` [Compound 22, 4-phenyl-1-(m-tolyl)-2-((4-(trifluoromethyl)benzyl)thio)-1H-imidazole], the Potency entry is “+ (+ > 1 μM)”.

For `C[S+](=O)([O-])c1cccc(-n2cc(-c3ccccc3)nc2SCc2ccc(C(F)(F)F)cc2)c1` [Compound 23, 1-(3-(methylsulfonyl)phenyl)-4-phenyl-2-((4-(trifluoromethyl)benzyl)thio)-1H-imidazole], the Potency entry was “+ (+ > 1 μM)”.

As for `FC(F)(F)c1ccc(CSc2nc(-c3ccccc3)cn2-c2cccc(Br)c2)cc1` [Compound 24, 1-(3-bromophenyl)-4-phenyl-2-((4-(trifluoromethyl)benzyl)thio)-1H-imidazole], the Potency result is “+ (+ > 1 μM)”.

`FC(F)(F)c1ccc(CSc2nc(-c3ccccc3)cn2-c2cccc(C(F)(F)F)c2)cc1` [Compound 25, 4-phenyl-2-((4-(trifluoromethyl)benzyl)thio)-1-(3-(trifluoromethyl)phenyl)-1H-imidazole]: the Potency result was “+ (+ > 1 μM)”.

As for `Fc1cccc(-n2cc(-c3ccccc3)nc2SCc2ccc(C3(C(F)(F)F)N=N3)cc2)c1` [Compound 26, 1-(3-fluorophenyl)-4-phenyl-2-((4-(3-(trifluoromethyl)-3H-diazirin-3-yl)benzyl)thio)-1H-imidazole], the Potency result is reported as “+ (+ > 1 μM)”.

Regarding `Fc1cccc(-n2cc(-c3ccc(Br)cc3)nc2SCc2ccccc2)c1` [Compound 27, 2-(benzylthio)-4-(4-bromophenyl)-1-(3-fluorophenyl)-1H-imidazole], the Potency result is listed as “+ (+ > 1 μM)”.

Turning to `FC(F)Oc1cccc(-n2cc(-c3ccccc3)nc2SCc2ccc(C(F)(F)F)cc2)c1` [Compound 28, 1-(3-(difluoromethoxy)phenyl)-4-phenyl-2-((4-(trifluoromethyl)benzyl)thio)-1H-imidazole], the Potency result was “+ (+ > 1 μM)”.

In the case of `COc1cccc(-n2cc(-c3ccccc3)nc2SCc2ccc(C(F)(F)F)cc2)c1` [Compound 29, 1-(3-methoxyphenyl)-4-phenyl-2-((4-(trifluoromethyl)benzyl)thio)-1H-imidazole], the Potency result is “+ (+ > 1 μM)”.

With `FC(F)(F)Oc1cccc(-n2cc(-c3ccccc3)nc2SCc2ccc(C(F)(F)F)cc2)c1` [Compound 30, 4-phenyl-1-(3-(trifluoromethoxy)phenyl)-2-((4-(trifluoromethyl)benzyl)thio)-1H-imidazole], the Potency entry is on record as “+ (+ > 1 μM)”.

For `O=C(Nc1nc(-c2ccccc2)cn1-c1cccc(F)c1)c1ccc(C(F)(F)F)cc1` [Compound 31, N-(1-(3-fluorophenyl)-4-phenyl-1H-imidazol-2-yl)-4-(trifluoromethyl)benzamide], the Potency entry was “+ (+ > 1 μM)”.

`Fc1cccc(-n2cc(-c3ccccc3)nc2NCc2ccc(C(F)(F)F)cc2)c1` [Compound 32, 1-(3-fluorophenyl)-4-phenyl-N-(4-(trifluoromethyl)benzyl)-1H-imidazol-2-amine]: the Potency entry was “++ (++ = 101-1000 nM)”.

In the case of `Cc1ccc(CSc2nc(-c3ccccc3)cn2-c2cccc(F)c2)cc1` [Compound 33, 1-(3-fluorophenyl)-2-((4-methylbenzyl)thio)-4-phenyl-1H-imidazole], the Potency result is reported as “+ (+ > 1 μM)”.

`Fc1cccc(-n2cc(-c3ccccc3)nc2SCc2ccc(Br)cc2)c1` [Compound 34, 2-((4-bromobenzyl)thio)-1-(3-fluorophenyl)-4-phenyl-1H-imidazole]: the Potency entry was “+ (+ > 1 μM)”.

On to `Fc1cccc(-n2cc(-c3ccccc3)nc2SCc2cccc(C(F)(F)F)c2)c1` [Compound 35, 1-(3-fluorophenyl)-4-phenyl-2-((3-(trifluoromethyl)benzyl)thio)-1H-imidazole], for which the Potency result was “+ (+ > 1 μM)”.

Regarding `Fc1cccc(-n2cc(-c3ccccc3)nc2SCc2ccc(OC(F)(F)F)cc2)c1` [Compound 36, 1-(3-fluorophenyl)-4-phenyl-2-((4-(trifluoromethoxy)benzyl)thio)-1H-imidazole], the Potency entry is “+ (+ > 1 μM)”.

For the compound `Fc1cccc(-n2cc(-c3ccccc3)nc2SCc2ccccc2)c1` [Compound 37, 2-(benzylthio)-1-(3-fluorophenyl)-4-phenyl-1H-imidazole], the Potency entry is “+ (+ > 1 μM)”.

For `CC(Sc1nc(-c2ccccc2)cn1-c1cccc(F)c1)c1ccccc1` (centres unmarked) [Compound 38, 1-(3-fluorophenyl)-4-phenyl-2-((1-phenylethyl)thio)-1H-imidazole], the Potency result was “+ (+ > 1 μM)”.

In the case of `Fc1cccc(-n2cc(-c3ccccc3)nc2SCc2cccc(Cl)c2)c1` [Compound 39, 2-((3-chlorobenzyl)thio)-1-(3-fluorophenyl)-4-phenyl-1H-imidazole], the Potency entry is reported as “+ (+ > 1 μM)”.

Consider `CS(=O)(=O)c1ccc(CSc2nc(-c3ccccc3)cn2-c2cccc(F)c2)cc1` [Compound 40, 1-(3-fluorophenyl)-2-((4-(methylsulfonyl)benzyl)thio)-4-phenyl-1H-imidazole], for which the Potency result is “+ (+ > 1 μM)”.

Consider `Fc1cccc(-n2cc(-c3ccccc3)nc2SCc2ccccc2C(F)(F)F)c1` [Compound 41, 1-(3-fluorophenyl)-4-phenyl-2-((2-(trifluoromethyl)benzyl)thio)-1H-imidazole], for which the Potency entry was “+ (+ > 1 μM)”.

As to `Fc1cccc(-n2cc(-c3ccccc3)nc2SCc2ccc(Cl)cc2)c1` [Compound 42, 2-((4-chlorobenzyl)thio)-1-(3-fluorophenyl)-4-phenyl-1H-imidazole], the Potency result is reported as “+ (+ > 1 μM)”.

`Cc1cccc(CSc2nc(-c3ccccc3)cn2-c2cccc(F)c2)c1` [Compound 43, 1-(3-fluorophenyl)-2-((3-methylbenzyl)thio)-4-phenyl-1H-imidazole]: the Potency result is on record as “+ (+ > 1 μM)”.

On to `NS(=O)(=O)c1ccc(CSc2nc(-c3ccccc3)cn2-c2cccc(F)c2)cc1` [Compound 44, 4-(((1-(3-fluorophenyl)-4-phenyl-1H-imidazol-2-yl)thio)methyl)benzenesulfonamide], for which the Potency entry was “+ (+ > 1 μM)”.

Turning to `CC(C)(C)c1ccc(CSc2nc(-c3ccccc3)cn2-c2cccc(F)c2)cc1` [Compound 45, 2-((4-(tert-butyl)benzyl)thio)-1-(3-fluorophenyl)-4-phenyl-1H-imidazole], the Potency result was “+ (+ > 1 μM)”.

With `Fc1cccc(-n2cc(-c3ccccc3)nc2SCc2cccc(Br)c2)c1` [Compound 46, 2-((3-bromobenzyl)thio)-1-(3-fluorophenyl)-4-phenyl-1H-imidazole], the Potency result is reported as “+ (+ > 1 μM)”.

For the compound `CC(C)c1ccc(CSc2nc(-c3ccccc3)cn2-c2cccc(F)c2)cc1` [Compound 47, 1-(3-fluorophenyl)-2-((4-isopropylbenzyl)thio)-4-phenyl-1H-imidazole], the Potency entry is “+ (+ > 1 μM)”.

Values taken from US20240002350A1, “PROTEIN AND LIPID THERAPEUTIC TARGETS” (UNIVERSITY OF PITTSBURGH-OF THE COMMONWEALTH SYSTEM OF …, priority 2020, published 2024).
